Assay results: patent US12486255B2, “Modulators of RAS GTPase” (Tosk, Inc., priority 2018, dated 2025)
Like-named read-outs stand apart in the source and are kept apart here.

Experiments:
[1] = Multi-day safety study in mice; type: in vivo; conditions: female CD1 mice, 10 mg/kg ip daily for 6 days
Procedure: The multi-day safety study used female, 10 week old, CD1 mice (4/treatment group) dosed with DMSO. Mice were administered 2 mg/kg of Structure 2 or 10 mg/kg Structure 3, ip, daily for 6 days and evaluated for changes clinical chemistry values, hematology values and animal weight as well as signs of health and grooming habits.
Heparinized blood samples were obtained by retro-orbital puncture on Day 6, 12 hours after the last dose of Structure 2. The plasma harvested from the blood was analyzed for standard clinical chemistry parameters (ALB. ALP, ALT, AMY, TBIL, BUN, CA, PHOS, CRE GLU, NA, K, TP & GLOB) and hematology (WBC, LYM, MON, GRA, RBC, HGB, HCT, MCV, MCH, MCHC, RDWc, PLT, PCT, MPV, PDWc) analytes (see definitions herein). Animal weight changes were also monitored. Values for all analytes were analyzed by one way ANOVA plus post-hoc Bonferroni using SPSS (IBM, Armonk, NY).

[2] = Pharmacokinetic study in mice; type: in vivo; conditions: ip, 10 mg/kg, CD-1 mice, 10 mg/kg; for Vd/F: CD-1, mouse, read-out: Vz/F
Procedure: Pharmacokinetic studies were carried out using 10 weeks old CD-1 mice. Structure 2 and Structure 3 were injected ip, 3 mg/kg and 10 mg/kg, respectively, at 8 time points (0, 0.25, 0.5, 1, 2, 4, 8 and 24 hours post-dose). Blood was collected from 3 animals/time point and concentrations of Structure 2 in plasma determined using LC/MS.

[3] = system: flies expressing G12V in their wing; experiment: Fly assay, wing phenotype reversal; type: in vivo, Drosophila
Source text: Each wing from mutant flies receiving treatment with either water or compound received a score from two independent scorers according to the scheme outlined in the schematic. The analysis of the scores given to the compound group was compared to the scores given for the control (water) group.
Embryo preparation. GAL4 virgin ♀ were collected over a period of 3-5 days, then crossed with kRAS G12V (3M) ♂ inside a plastic condo supplied with grape agar containing yeast paste. Flies were acclimated for 2 days and embryos present after a span of 4-5 hours were collected along with the agar plate and incubated for 24 hours. The next day, embryos were washed off the agar plate with Embryo Wash solution (120 mM NaCl, 0.03% Triton X) and resuspended in Embryo Inoculation solution (120 mM NaCl, 420 mM Sucrose, 0.05% Triton X-100). Embryos were counted and diluted to 15 embryos/10 μL. 150 embryos (100 μL) were dispensed into each vial.
Food-drug admix preparation. Each fly vial contains 1.5 g of fly food in 4 ml water. The quantity of drug needed is calculated for a total of 4 vials, each vial containing 10 μM of Structure 2. This is equivalent to 0.014 mg of Structure 2/vial, for a total of 0.056 mg of Structure 2.
A stock solution of 0.1 mg/mL Structure 2 in ethanol is prepared. A 500-ml round bottom flask is charged with 6 g of fly food (1.5 g×4), to which is added 20 mL of ethanol, ensuring that the food is entirely covered in solvent. To this heterogeneous solution is added an appropriate amount of Structure 2 stock solution, containing the calculated required quantity, in this case 0.56 mL stock solution.
The ethanol is evaporated under reduced pressure via a rotary evaporator equipped with a bump trap. The resulting dry food is added to three vials, each containing 1.5 g, so that the experiment is performed in triplicate. The quantity is calculated initially for 4 vials, because some food will be stuck to the walls of the round bottom flask and some is also invariably lost in the bump trap during the solvent evaporation step. Control vials lacking Structure 2 or Structure 3 are also analyzed and undergo the exact same food preparation and solvent extraction procedure.
Embryo addition to vials. After all the food-drug admix is prepared and added to the respective vials, to each vial is added 4 mL of water and the vial briefly vortexed. To this liquid mixture is added the embryo solution (100 μL), the vials capped and placed in an incubator or fly room.
Wing mounting and scoring. Flies hatch 10-12 days after the above experimental setup is performed. The resulting adult flies are submerged in a 3:1 70% ethanol:glycerol solution for 24 hours, then wings are dissected with curved Vannas spring scissors (FST #15001-08). The wings are mounted in an 80% glycerol solution on a microscope slide under coverslip seal.
Pictures of the wings were taken using an Accu-Scope microscope equipped with a digital camera and connected to a laptop containing the Accu-Scope Micrometric SE Premium software. The wings were scored according to the following scoring tree:
Wing score analysis. After each wing received a score from two independent scorers, the analysis of the scores given to the Structure 2 and 3 groups was compared to the scores given for the control group and was performed using the IBM SPSS software.
Wings that received a score of 3 or above are considered “reversed”, since their phenotype is closer to WT than to kRAS G12V bearing Drosophila. The findings are plotted in FIG. 9. […]

[4] = system: phosphorylated ERK 1/2 (T202/Y204); experiment: Phosphorylated ERK bioassay (Western blot, SW480 cells); type: cell-based, human; conditions: 3 μM, 24 hours, in the presence of serum
Procedure: As described herein, the main downstream target for kRAS is ERK (Samatar et al., Targeting RAS-ERK signaling in cancer: promises and challenges. Nat Rev Drug Discov. 2014; 13:928-42). kRAS activates ERK leading to phosphorylated ERK. A compound that suppresses kRAS activity is expected to lower phosphorylated ERK.
Test articles abrogate the expression of phosphorylated ERK (T202/Y204) SW480 cells were subjected to test article incubation at 3 μM for 24 hours in the presence of serum to mimic natural growth environment. Cells were extracted and total protein of samples normalized through BCA assay. Processed extracts were subjected to SDS-PAGE/Western blot and blotted for phosphorylated ERK 1/2 (T202/Y204); ERK 1/2; and α-Tubulin.
The compound U0126 in FIG. 8 is a MEK inhibitor which is known to suppress phosphorylation of ERK. The compound was tested along with the test articles to serve as a positive control.

## c1ccc(-n2cc(CN3CCN(c4ncnc5ccccc45)CC3)cn2)cc1 [Structure 3, 4-(4-((1-phenyl-1H-pyrazol-4-yl)methyl)piperazin-1-yl)quinazoline]
[1]
  body weight or grooming habits versus dosing vehicle treated animals: no statistically significant difference
  clinical chemistry changes versus dosing vehicle treated animals: no significant clinical chemistry changes
[1]; Day 6
  ALB: 4.0 ± 0.10 g/dL
  ALP: 106.3 ± 21.40 U/L
  ALT: 77.3 ± 16.30 U/L
  AMY: 932.0 ± 98.90 U/L
  BUN: 22.0 ± 5.40 mg/dL
  CRE: <0.40 mg/dL
  Ca^++: 9.7 ± 0.10 mg/dL
  GLOB: 1.2 ± 0.10 g/dL
  GLU: 309.0 ± 45.10 mg/dL
  GRA: 0.4 ± 0.20 10^9/l
  GRA (%): 7.0 ± 3.00%
  HCT: 43.1 ± 1.80%
  HGB: 14.1 ± 0.50 g/dL
  K^+: 4.6 ± 0.20 mmol/L
  LYM: 4.6 ± 1.40 10^9/l
  LYM (%): 90.0 ± 4.30%
  MCH: 16.0 ± 0.70 pg
  MCHC: 32.7 ± 2.50 g/dL
  MCV: 49.3 ± 4.30 fL
  MON: 0.2 ± 0.20 10^9/l
  MON (%): 3.1 ± 2.00%
  MPV: 6.7 ± 0.40 fL
  NA^+: 147.8 ± 2.20 mmol/L
  PCT: 0.4 ± 0.10%
  PDWc: 30.0 ± 1.50%
  PHOS: 9.8 ± 0.40 mg/dL
  PLT: 578.8 ± 86.70 10^9/l
  RBC: 8.8 ± 0.50 10^12/l
  RDWc: 17.4 ± 0.70%
  TBIL: 0.4 ± 0.00 mg/dL
  TP: 5.2 ± 0.20 g/dL
  WBC: 5.2 ± 1.80 10^9/l
[2]; plasma, plasma
  Vd/F: 3.19 L/kg
[2]; plasma, plasma, text statement
  Vd/F: > 3 L/kg
[2]
  mean resident times (MRT): approximately one to two
[2]; plasma
  AUCINF: 4.12 (Microgram * Hour)/mL
  AUC_%Extrap: 4.92%
  AUClast: 3.92 (Microgram * Hour)/mL
  CI/F: 4.04 mL/min/kg
  Concentrationmax: 3.38 Microgram/mL
  Lambda_z: 0.76 h⁻¹
  MRTINF: 1.25 h
  MRTlast: 1.03 h
  Timelast: 4.00 h
[2]; mouse, plasma, read-out: Concentrationlast
  concentration at 4 Hour: 150 ng/mL
[3]; Tukey HSD and LSD p<0.001, Mann Whitney p=0.002
  wing scores compared to the control group: significantly different from the control group
[3]; wings with score of 3 or above, Structure 2 at 10 μmolar, control 8.27
  Reversal Phenotype (%): 16%
[4]
  phosphorylated ERK (T202/Y204): dramatically decrease phosphorylated ERK
